Tests used:
[1] = system: Plutella xylostella eggs (Waite strain); test: Egg hatching of Plutella xylostella; settings: Table 9; 10 mM; relative to control (100% MeOH)
Experimental: The egg masses were then placed in a humid box at 25 degrees until egg hatch. Control eggs were exposed to absolute methanol as described above. At day 6 post laying the eggs were assessed from the different treatments and the percentage of egg hatch determined relative to the control as shown in Table 9.
Batches of Plutella eggs that were laid on either fine cloth or parafilm were dipped in a specific inhibitor solution for between 2-10 seconds, the excess solution was drained by blotting with dry tissue paper. The egg masses were then placed in a humid box at 25 degrees until egg hatch. Control eggs were exposed to absolute methanol as described above or not treated. At day 6 post laying the eggs were assessed from the different treatments and the percentage of egg hatch determined relative to the controls as shown in Tables 10 and 11.
Batches of Plutella eggs that were laid on fine cloth were dipped in a specific inhibitor solution for approximately 2 seconds, the excess solution was drained by blotting with dry tissue paper. The egg masses were then placed in a humid box at 25 degrees until egg hatch. Control eggs were exposed to absolute methanol as described above or not treated. At day 6 post laying the eggs were assessed from the different treatments and the percentage of egg hatch determined relative to the control as shown in Table 12.
The egg masses were then placed in a humid box at 25 degrees until egg hatch. Control eggs were exposed to absolute ethanol as described above. On day 6 post laying the eggs were assessed from the different treatments and the percentage of egg hatch determined relative to the control.

lice eggs = test: Lice egg-hatch bioassay, eggs treated five days post laying; format: in vivo, clothing lice (Pediculus humanus humanus)
Experimental: To evaluate the potential effects of protease inhibitors on lice egg hatching it was necessary to develop a reliable in vitro bioassay. Male and female clothing lice were fed on a rabbit as previously described. […] During this period the female lice laid their eggs and attached them to the woven cloth. All lice would then be removed and the eggs permitted to incubate for the following 5 days. […] The eggs would then progress through to their final stages of development and hatch. In untreated control eggs a reliable average percentage hatch of between 85-95 percent was obtained using the in vitro egg hatch assay. […] Lice eggs were laid onto cloth as described above. […] Protease inhibitor solutions were typically prepared as stock solutions and added fresh at the appropriate concentration. Specifically stock solutions were prepared as follows: 1,10-phenanthroline (200 mM in methanol) and bestatin (5 mg/ml in methanol). In addition, the equivalent levels of the solvent were added to the non-inhibitor containing controls eggs to test for any buffer alone effects. Percentage hatch inhibition was calculated as the percentage reduction in egg hatch compared to the untreated control.

head lice eggs = test: Assessment of commercial lice products in the standard lice egg-hatching assay; format: in vivo; settings: summary in words
Experimental: These three products were tested according to manufacturer's recommendations. Groups of eggs (24 hr old) were treated with the different products according to manufacturer's recommendations for the appropriate period of time (5-10 minutes) followed by a rinse for 1-2 minutes in 32° C. water. A positive controls (10 mM 1,10-phenanthroline) and two negative controls (no treatment and 20% Methanol) were also incorporated. Post exposure to the different products, the eggs were rinsed with warm water at 32° C. before being blotted dry on tissue paper and placed at 32° C., 70% RH and left to hatch. A second group of eggs, (48 hr old) were treated as previously described and also left to hatch. This process was repeated at 24 hr intervals on head lice eggs up to 120 hr post laying. This method of assaying inhibitors more closely mirrors the field situation where lice eggs will be at various stages of development on the head and permits the inhibitory effects to be observed on these different stages of the parasite.
These two products were tested according to manufacturer's recommendations. Groups of eggs (24 hr old) were treated with the different products according to manufacturer's recommendations for the appropriate period of time (5-10 minutes) followed by a rinse for 1-2 minutes in 32° C. water. Two negative controls (no treatment and 20% ethanol) were also incorporated. […]

[2] = system: Helicoverpa armigera eggs (Tatura×Toowoomba strains); test: Egg hatching of Helicoverpa armigera; settings: Table 14; 10 mM; relative to control
Experimental: Several hundred Helicoverpa armigera eggs (Tatura×Toowoomba strains) were collected, that had been laid on fine mesh cloth over a 24 hour period.
Batches of Helicoverpa eggs were exposed to a specific inhibitor solution for between 2-10 seconds the excess solution drained by blotting with dry tissue paper. The egg masses were then placed in a humid box at 25 degrees until egg hatch. Control eggs were exposed to absolute methanol as described above.

[3] = system: lice hatching proteases in the egg shell washings (ESW); test: Gelatine substrate SDS-PAGE of egg shell washings treated with protease inhibitors; format: biochemical, Pediculus humanus humanus; settings: 10 mM inhibitor; 3 hrs at 37° C.
Experimental: Within 12 hours of hatching 50 body lice eggs (Pediculus humanus humanus) were removed from the hair and placed in a 1 ml eppendorf tube. 20 μL of distilled water was added to the unhatched eggs and the preparation incubated for 30 minutes at 32° C. The 20 μL was recovered, freeze dried and stored at −70° C. A number of other samples were also collected as described. Hair samples from which unhatched lice eggs had been removed were also collected and incubated as described above. In addition, a sample of unhatched eggs and a sample of hair from which lice eggs had been removed were collected 7 days post laying (within 24 hrs of egg hatching). Both samples were washed in 10 mls of a 1% solution of sodium hypochlorite for 1 minute followed by a 5×1 minute washes in 25 mls in distilled water to remove the hypochlorite. These samples were then incubated in 20 μL of distilled water as described above. In addition, a group of 25 lice eggs that were within 24 hours of hatching, were pretreated with 1% sodium hypochlorite, washed as described above and left to hatch. Within 1-2 hours after hatching the empty egg shells were incubated in 20 μL of distilled water as described above, the washings collected from the hatched egg shells and stored at −70° C. All of the extract samples were then freeze-dried overnight. The freeze-dried samples were then resuspended in 15 μL of non-reducing SDS sample buffer, centrifuged at 10,000 g for 2 minutes and the entire 15 μL loaded on to 10% gelatine substrate SD S-PAGE gels. Gels were run at 4° C. for 10 minutes at 10 mA followed by a further 25 minutes at 15 mA per gel. They were then incubated for 2×20 minutes in a 2.5% Triton-X 100 solution followed by a three hour incubation in 0.1M Tris/HCl containing 1 mM CaCl2 pH 8.0. Activity was detected as clear areas on the gel the result of protease activity degrading the gelatine within the gel.
10% SDS-PAGE gelatine substrate gels were loaded with freeze dried egg shell washings from 100 lice eggs that had been resuspended in 50 μl of non-reducing sample buffer with samples run at 10 μl per lane. Gels were run at 4° C. for 10 minutes at 10 mA per gel followed by a further 25 minutes at 15 mA per gel. Gels were then cut into strips and each strip incubated for 2×20 minutes in a 2.5% Triton-X 100 solution containing a specific inhibitor. The inhibitors used were the serine protease inhibitor PMSF (5 mM), the metalloprotease inhibitor 1,10-phenanthroline (10 mM), the aspartic protease Pepstatin (5 μM) and the cysteine inhibitor E-64 (10 μM). The gel strips were then incubated in 0.1M Tris/HCl containing 1 mM CaCl2 pH 8 containing the different protease inhibitors for 3 hrs at 37° C., before being stained in Coomassie blue and destained as previously described.

## c1cnc2c(c1)ccc1cccnc12 [1,10-phenanthroline]
[1]
  % Inhibition: significantly inhibit egg hatching
Lice eggs; 10 mM, eggs treated 5 days post laying
  egg hatching in lice: significantly inhibited egg hatching
Lice eggs; added within 24 hours of hatching
  inhibition of egg hatching: variable inhibition
Head lice eggs
  ovicidal activity across the different stages of lice egg hatching: highly effective at inhibiting lice egg hatching
[2]
  % Inhibition: able to inhibit egg hatching
[3]
  protease activity of the ESW: significant reduction in protease activity
